# In patent US11072592B2, “Small molecules that enable cartilage rejuvenation” (The Regents of the University of California, priority 2015, dated 2021):
# Legend:
# adult chondrocytes = test: Collagen 2 production by adult chondrocytes; type: cell-based; settings: compared with control (DMSO)
# Excerpt: FIGS. 21A-21B. […] (FIG. 21A) cell sorting results for isotype (left), BMPR18^neg (middle), and BMPR18+ cells (right). (FIG. 21B) CRM-423 (right panel) stimulates collagen 2 product by adult chondrocytes compared with control (DMSO, left panel).
# Cmpd 423 stimulates collagen 2 product by adult chondrocytes (FIG. 21B).
# [1] = test system: human adult articular chondrocytes; test: RNA-Seq of human adult articular chondrocytes; type: cell-based; settings: n=7
structure (smiles),measurement,setting,value
"Brc1ccc(Nc2nc(-c3ccccc3)cs2)cc1 [RCGD 423, N-(4-Bromophenyl)-4-phenyl-1,3-thiazol-2-amine]",collagen 2 production by adult chondrocytes,adult chondrocytes,stimulates
same,enriched transcripts (increased more than 1.5-fold in 4/7 replicates),[1],"1,244"
